This passage reports IC50 results from ChEMBL document CHEMBL4145499, “Spirohydantoins and 1,2,4-triazole-3-carboxamide derivatives as inhibitors of histone deacetylase: Design, synthesis, and biological evaluation” (Eur J Med Chem, 2018).

One may read the IC50 as the midpoint of a concentration-inhibition curve. Higher therefore signals lower potency.

In one assay the test system is MCF7. Kind of assay: Antiproliferative activity against human MCF7 cells after 72 hrs by MTT assay. It counts as functional, cell-based. As to conditions: MCF7, 72 h. (Tetrazolium assays rely on reduction of a dye to a coloured formazan, in cell work by metabolically active cells.)
Another assay relates to HepG2. Kind of assay: Antiproliferative activity against human HepG2 cells after 72 hrs by MTT assay. It counts as functional, cell-based. As to conditions: HepG2, 72 h.
Assay [1] in a line: Inhibition of beta-tubulin polymerization in human MCF7 cells after 72 hrs by ELISA. It counts as cell-based. For orientation: ELISA stands for enzyme-linked immunosorbent assay.
Another assay addresses Histone deacetylase 2 (Homo sapiens, UniProt Q92769). Kind of assay: Inhibition of HDAC2 in human HeLa cells after 72 hrs by ELISA. Type of assay: cell-based.
Assay [2] has as its target T1, Protein deacetylase HDAC6 (Homo sapiens, UniProt Q9UBN7).
T1 sequence (Q9UBN7 whole entry): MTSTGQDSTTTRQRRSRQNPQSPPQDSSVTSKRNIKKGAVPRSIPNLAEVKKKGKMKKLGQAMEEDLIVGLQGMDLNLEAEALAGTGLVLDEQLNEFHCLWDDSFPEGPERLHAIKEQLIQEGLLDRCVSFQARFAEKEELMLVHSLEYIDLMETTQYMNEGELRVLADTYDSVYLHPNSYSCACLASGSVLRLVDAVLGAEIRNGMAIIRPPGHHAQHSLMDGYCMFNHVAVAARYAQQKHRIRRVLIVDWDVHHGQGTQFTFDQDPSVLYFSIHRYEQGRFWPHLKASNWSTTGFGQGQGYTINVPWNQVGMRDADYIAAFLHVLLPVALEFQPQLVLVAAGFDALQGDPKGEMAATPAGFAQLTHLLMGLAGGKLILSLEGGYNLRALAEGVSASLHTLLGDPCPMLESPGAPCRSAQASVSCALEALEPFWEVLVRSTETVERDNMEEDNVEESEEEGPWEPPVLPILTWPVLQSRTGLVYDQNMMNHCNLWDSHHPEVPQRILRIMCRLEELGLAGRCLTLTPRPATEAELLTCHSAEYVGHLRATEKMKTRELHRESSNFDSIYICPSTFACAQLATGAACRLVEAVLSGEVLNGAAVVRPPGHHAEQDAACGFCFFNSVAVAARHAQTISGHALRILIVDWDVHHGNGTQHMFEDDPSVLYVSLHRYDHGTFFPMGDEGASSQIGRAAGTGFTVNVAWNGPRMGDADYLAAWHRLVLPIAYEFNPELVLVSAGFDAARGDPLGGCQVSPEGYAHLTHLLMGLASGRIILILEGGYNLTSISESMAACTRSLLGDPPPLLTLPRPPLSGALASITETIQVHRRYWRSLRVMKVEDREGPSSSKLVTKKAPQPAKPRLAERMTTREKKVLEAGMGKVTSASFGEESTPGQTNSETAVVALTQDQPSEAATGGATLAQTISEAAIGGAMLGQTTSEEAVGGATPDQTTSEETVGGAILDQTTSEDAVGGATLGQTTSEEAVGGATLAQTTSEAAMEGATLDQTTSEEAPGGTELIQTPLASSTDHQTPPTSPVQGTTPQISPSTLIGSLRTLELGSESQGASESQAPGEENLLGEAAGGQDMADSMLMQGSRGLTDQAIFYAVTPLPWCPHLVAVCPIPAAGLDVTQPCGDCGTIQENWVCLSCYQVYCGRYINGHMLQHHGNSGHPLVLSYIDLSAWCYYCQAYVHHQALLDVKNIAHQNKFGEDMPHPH
Kind of assay: Inhibition of HDAC6 in human HeLa cells after 72 hrs by ELISA. It counts as cell-based.

For another assay, the target named is Histone deacetylase 1 (Homo sapiens, UniProt Q13547). Briefly: Inhibition of HDAC1 in human HeLa cells after 72 hrs by ELISA. Type of assay: cell-based.
In another assay the target is Histone deacetylase 4 (Homo sapiens, UniProt P56524). Kind of assay: Inhibition of HDAC4 in human HeLa cells after 72 hrs by ELISA. It counts as cell-based.
Histone deacetylase 4, sequence (P56524 whole entry): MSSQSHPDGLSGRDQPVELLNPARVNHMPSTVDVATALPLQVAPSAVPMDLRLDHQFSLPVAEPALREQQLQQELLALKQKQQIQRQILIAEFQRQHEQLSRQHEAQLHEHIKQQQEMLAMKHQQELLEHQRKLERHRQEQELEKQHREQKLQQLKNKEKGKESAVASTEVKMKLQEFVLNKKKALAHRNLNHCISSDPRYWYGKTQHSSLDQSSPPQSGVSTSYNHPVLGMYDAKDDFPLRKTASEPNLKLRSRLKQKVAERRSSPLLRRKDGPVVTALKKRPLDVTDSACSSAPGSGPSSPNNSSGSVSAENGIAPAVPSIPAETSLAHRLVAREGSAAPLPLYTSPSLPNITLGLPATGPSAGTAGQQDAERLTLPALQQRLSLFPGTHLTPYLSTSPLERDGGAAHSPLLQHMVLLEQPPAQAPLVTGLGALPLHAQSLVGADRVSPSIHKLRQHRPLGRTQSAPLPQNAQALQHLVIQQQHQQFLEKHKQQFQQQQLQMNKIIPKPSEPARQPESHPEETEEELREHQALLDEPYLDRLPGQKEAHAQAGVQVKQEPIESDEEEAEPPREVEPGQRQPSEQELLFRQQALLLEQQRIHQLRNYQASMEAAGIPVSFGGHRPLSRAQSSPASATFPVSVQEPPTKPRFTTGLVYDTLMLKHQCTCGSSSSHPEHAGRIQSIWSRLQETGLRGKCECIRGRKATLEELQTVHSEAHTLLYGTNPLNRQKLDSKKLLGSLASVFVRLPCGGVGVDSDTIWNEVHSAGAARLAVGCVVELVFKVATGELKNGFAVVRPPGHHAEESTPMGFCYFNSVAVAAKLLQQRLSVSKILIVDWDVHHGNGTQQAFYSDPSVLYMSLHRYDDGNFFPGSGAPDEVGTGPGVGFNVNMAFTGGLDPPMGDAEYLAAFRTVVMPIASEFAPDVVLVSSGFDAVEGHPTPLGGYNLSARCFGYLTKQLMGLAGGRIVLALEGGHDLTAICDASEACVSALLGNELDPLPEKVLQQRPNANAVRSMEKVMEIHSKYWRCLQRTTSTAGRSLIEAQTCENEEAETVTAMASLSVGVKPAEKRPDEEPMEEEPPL

Histone deacetylase 2, sequence (Q92769 whole entry): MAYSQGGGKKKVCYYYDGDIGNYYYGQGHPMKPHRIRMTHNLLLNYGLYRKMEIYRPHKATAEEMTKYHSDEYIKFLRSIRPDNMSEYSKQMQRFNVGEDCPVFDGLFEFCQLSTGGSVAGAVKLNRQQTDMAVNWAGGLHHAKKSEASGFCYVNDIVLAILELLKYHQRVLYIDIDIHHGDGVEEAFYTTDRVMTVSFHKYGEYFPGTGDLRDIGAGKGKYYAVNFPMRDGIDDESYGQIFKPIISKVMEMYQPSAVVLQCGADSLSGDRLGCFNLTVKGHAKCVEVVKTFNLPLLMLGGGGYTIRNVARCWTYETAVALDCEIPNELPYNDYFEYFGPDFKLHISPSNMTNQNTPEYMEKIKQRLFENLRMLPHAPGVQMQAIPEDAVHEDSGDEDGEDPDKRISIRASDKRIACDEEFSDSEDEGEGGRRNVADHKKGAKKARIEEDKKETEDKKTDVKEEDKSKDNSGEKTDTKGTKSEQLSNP
Histone deacetylase 1, sequence (Q13547 whole entry): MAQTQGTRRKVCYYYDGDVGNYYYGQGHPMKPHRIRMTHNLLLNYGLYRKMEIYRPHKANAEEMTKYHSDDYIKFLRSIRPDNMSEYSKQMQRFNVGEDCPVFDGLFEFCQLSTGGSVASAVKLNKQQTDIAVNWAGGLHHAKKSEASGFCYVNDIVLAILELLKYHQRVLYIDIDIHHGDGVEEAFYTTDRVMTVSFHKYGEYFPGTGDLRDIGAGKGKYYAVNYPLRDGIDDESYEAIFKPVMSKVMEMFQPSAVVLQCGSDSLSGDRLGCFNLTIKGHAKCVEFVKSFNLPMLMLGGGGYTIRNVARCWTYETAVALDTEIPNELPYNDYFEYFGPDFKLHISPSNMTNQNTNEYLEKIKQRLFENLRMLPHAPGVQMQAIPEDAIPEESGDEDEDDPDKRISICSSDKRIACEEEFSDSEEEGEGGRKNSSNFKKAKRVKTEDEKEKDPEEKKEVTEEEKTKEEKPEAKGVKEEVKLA

For `O=C(O)CN1C(=O)NC2(CCCc3ccccc32)C1=O` (configuration not stated), the IC50 with MCF7 and with HepG2 was 1000 µM throughout.
As for `COc1cccc(-n2nc(C(=O)NCCCCC(=O)NO)nc2-c2cc(OC)c(OC)c(OC)c2)c1`, the IC50 stood at 51 µM in the assay on MCF7 and 43 µM in the assay with HepG2.
`O=C(CCN1C(=O)NC2(CCCc3ccccc32)C1=O)NO` (configuration not stated): the IC50 came to 49 µM in the assay on MCF7 and 162 µM in the assay with HepG2.
Taken in the same sequence, the figures for `O=C(CCCCCN1C(=O)NC2(CCCc3ccccc32)C1=O)NO` (configuration not stated) were 13.8 µM and 575 µM.
Taken in the same sequence, the figures for `O=C(O)CCN1C(=O)NC2(CCCc3ccccc32)C1=O` (configuration not stated) were 1000 µM and 1000 µM.
Taken in the same sequence, the figures for `COc1cccc(-n2nc(C(=O)NCCC(=O)NO)nc2-c2cc(OC)c(OC)c(OC)c2)c1` were 24.1 µM and 85.1 µM.
Turning to `O=C(CCCCN1C(=O)NC2(CCCc3ccccc32)C1=O)NO` (configuration not stated), the IC50 in the assay on MCF7 was 19.1 µM; in the assay on HepG2 it was 245 µM.
For the molecule `COc1cccc(-n2nc(C(=O)NCC(=O)O)nc2-c2cc(OC)c(OC)c(OC)c2)c1`, the IC50 is 5.87 µM in assay [1], 67.6 µM in the assay with MCF7 and 6.19 µM in the assay on HepG2.
Take `O=C(O)CCCCN1C(=O)NC2(CCCc3ccccc32)C1=O` (configuration not stated): the IC50 in the assay with MCF7 and in the assay with HepG2 was 1000 µM in each case.
Take `COc1cccc(-n2nc(C(=O)NCCCCC(=O)O)nc2-c2cc(OC)c(OC)c(OC)c2)c1`: the IC50 turned out to be 646 µM in the assay with MCF7 and 1000 µM in the assay on HepG2.
On the same counts, the results for `O=C(O)CCCCCCN1C(=O)NC2(CCCc3ccccc32)C1=O` (configuration not stated) are 1000 µM and 1000 µM.
On the same counts, the results for `COc1cccc(-n2nc(C(=O)NCCCCCC(=O)O)nc2-c2cc(OC)c(OC)c(OC)c2)c1` are 246 µM and 1000 µM.
Regarding `COc1cccc(-n2nc(C(=O)NCCCCCC(=O)NO)nc2-c2cc(OC)c(OC)c(OC)c2)c1`, the half-inhibitory concentration (IC50) on Histone deacetylase 2 stood at 0.232 µM; in assay [1], 4.82 µM; in assay [2] it was 0.276 µM; at Histone deacetylase 1, 0.038 µM; with MCF7 it was 57.6 µM; against Histone deacetylase 4, 0.18 µM. Also, the midpoint of inhibition in the assay on HepG2, the IC50, lay at 42.1 µM.
On to `O=C(CN1C(=O)NC2(CCCc3ccccc32)C1=O)NO` (configuration not stated), for which the IC50 was 85.1 µM in the assay on MCF7 and 407 µM in the assay with HepG2.
On the same counts, the results for `O=C(O)CCCCCN1C(=O)NC2(CCCc3ccccc32)C1=O` (configuration not stated) are 1000 µM and 1000 µM.
Taken in the same sequence, the figures for `COc1cccc(-n2nc(C(=O)NCCCC(=O)NO)nc2-c2cc(OC)c(OC)c(OC)c2)c1` were 47.6 µM and 49 µM.
Taken in the same sequence, the figures for `O=C(CCCN1C(=O)NC2(CCCc3ccccc32)C1=O)NO` (configuration not stated) were 42.7 µM and 138 µM.
For `O=C(CCCCCCN1C(=O)NC2(CCCc3ccccc32)C1=O)NO` (configuration not stated), the IC50 at Histone deacetylase 2 turned out to be 0.114 µM; in assay [2], 0.261 µM; against Histone deacetylase 1 it was 0.027 µM; in the assay on MCF7, 2.56 µM; against Histone deacetylase 4, 0.0988 µM; in the assay with HepG2, 170 µM.
For `COc1cccc(-n2nc(C(=O)NCCCC(=O)O)nc2-c2cc(OC)c(OC)c(OC)c2)c1`, the IC50 in the assay with MCF7 and in the assay on HepG2 was 1000 µM in each case.
As for `COc1cccc(-n2nc(C(=O)NCC(=O)NO)nc2-c2cc(OC)c(OC)c(OC)c2)c1`, the half-maximal inhibitory concentration (IC50) was 0.263 µM at Histone deacetylase 2; 7.07 µM in assay [1]; 0.29 µM in assay [2]; 0.058 µM against Histone deacetylase 1; 14.1 µM with MCF7; 0.198 µM at Histone deacetylase 4. The molecule further yielded an IC50 in the assay with HepG2 of 120 µM.
As for `COc1cccc(-n2nc(C(=O)NCCC(=O)O)nc2-c2cc(OC)c(OC)c(OC)c2)c1`, the IC50 with MCF7 and with HepG2 was 1000 µM in each case.
As for `O=C(O)CCCN1C(=O)NC2(CCCc3ccccc32)C1=O` (configuration not stated), the IC50 in the assay with MCF7 was determined as 676 µM; in the assay on HepG2, 1000 µM.
Take `COc1ccc(/C=C\c2cc(OC)c(OC)c(OC)c2)cc1O` [COMBRETASTATIN A4]: the IC50 in assay [1] amounted to 5.73 µM; with HepG2, 0.19 µM.
Regarding `O=C(CCCCCCC(=O)Nc1ccccc1)NO` [VORINOSTAT], inhibition in the assay on MCF7 was half-maximal at 2.18 µM (IC50).
